From patent US20100267561A1, “HERBICIDAL PYRIDAZINONE DERIVATIVES” (priority 2007, published 2010)

Tests used:
Assay in all cases: Test E pre-/postemergence plant response
Format in all cases: in vivo
[1] = system: Italian ryegrass (Lolium multiflorum); details: scale 0 to 100
In short: (§1)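 Plants scored visually versus controls on a 0–100 scale (100 = complete control) 14 to 21 days after treatment in the greenhouse. Test chemicals in a surfactant-containing non-phytotoxic solvent were applied to soil preemergence or to 1- to 4-leaf plants, 2–18 cm tall.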

[2] = system: annual bluegrass (Poa annua); details: scale 0 to 100
In short: as §1

[3] = system: broadleaf signalgrass (Brachiaria platyphylla); details: scale 0 to 100
In short: as §1

[4] = system: common chickweed (Stellaria media); details: Postemergence, scale 0 to 100
In short: as §1

[5] = system: common groundsel (Senecio vulgaris); details: Postemergence, scale 0 to 100
In short: as §1

[6] = system: dallisgrass (Paspalum dilatatum); details: scale 0 to 100
In short: as §1

[7] = system: goosegrass (Eleusine indica); details: scale 0 to 100
In short: as §1

[8] = system: green foxtail (Setaria viridis); details: scale 0 to 100
In short: as §1

[9] = system: guineagrass (Panicum maximum); details: scale 0 to 100
In short: as §1

[10] = system: itchgrass (Rottboellia cochinchinensis); details: scale 0 to 100
In short: as §1

[11] = system: johnsongrass (Sorghum halepense); details: scale 0 to 100
In short: as §1

[12] = system: large crabgrass (Digitaria sanguinalis); details: scale 0 to 100
In short: as §1

[13] = system: naked crabgrass (Digitaria nuda); details: scale 0 to 100
In short: as §1

[14] = system: purple nutsedge (Cyperus rotundus); details: scale 0 to 100
In short: as §1

[15] = system: surinam grass (Brachiaria decumbens); details: scale 0 to 100
In short: as §1

Cn1ncc(O)c(-c2nn(-c3ccc(Cl)cc3)cc2Br)c1=O [Compound 31]
Plant response rating, Ryegrass, Italian ([1]; 16 g ai/ha, Preemergence): 65 | Plant response rating, Ryegrass, Italian ([1]; 31 g ai/ha, Preemergence): 90 | Plant response rating, Ryegrass, Italian ([1]; 62 g ai/ha, Preemergence): 100 | Plant response rating, Ryegrass, Italian ([1]; Postemergence, 8 g ai/ha): 30 | Plant response rating, Ryegrass, Italian ([1]; Postemergence, 16 g ai/ha): 35 | Plant response rating, Ryegrass, Italian ([1]; Postemergence, 31 g ai/ha): 50 | Plant response rating, Ryegrass, Italian ([1]; Postemergence, 62 g ai/ha): 90 | Plant response rating, Bluegrass ([2]; 8 g ai/ha, Preemergence): 0 | Plant response rating, Bluegrass ([2]; 16 g ai/ha, Preemergence): 0 | Plant response rating, Bluegrass ([2]; 31 g ai/ha, Preemergence): 0 | Plant response rating, Bluegrass ([2]; 62 g ai/ha, Preemergence): 0 | Plant response rating, Bluegrass ([2]; Postemergence, 8 g ai/ha): 0 | Plant response rating, Bluegrass ([2]; Postemergence, 16 g ai/ha): 0 | Plant response rating, Bluegrass ([2]; Postemergence, 31 g ai/ha): 0 | Plant response rating, Bluegrass ([2]; Postemergence, 62 g ai/ha): 10 | Plant response rating, Signalgrass ([3]; 16 g ai/ha, Preemergence): 15 | Plant response rating, Signalgrass ([3]; 31 g ai/ha, Preemergence): 65 | Plant response rating, Signalgrass ([3]; 62 g ai/ha, Preemergence): 80 | Plant response rating, Signalgrass ([3]; Postemergence, 8 g ai/ha): 65 | Plant response rating, Signalgrass ([3]; Postemergence, 16 g ai/ha): 65 | Plant response rating, Signalgrass ([3]; Postemergence, 31 g ai/ha): 75 | Plant response rating, Signalgrass ([3]; Postemergence, 62 g ai/ha): 75 | Plant response rating, Chickweed ([4]; 8 g ai/ha): 0 | Plant response rating, Chickweed ([4]; 16 g ai/ha): 0 | Plant response rating, Chickweed ([4]; 31 g ai/ha): 0 | Plant response rating, Groundsel ([5]; 8 g ai/ha): 0 | Plant response rating, Groundsel ([5]; 16 g ai/ha): 0 | Plant response rating, Dallisgrass ([6]; 8 g ai/ha, Preemergence): 0 | Plant response rating, Dallisgrass ([6]; 16 g ai/ha, Preemergence): 15 | Plant response rating, Dallisgrass ([6]; 31 g ai/ha, Preemergence): 75 | Plant response rating, Dallisgrass ([6]; 62 g ai/ha, Preemergence): 98 | Plant response rating, Dallisgrass ([6]; Postemergence, 8 g ai/ha): 35 | Plant response rating, Dallisgrass ([6]; Postemergence, 16 g ai/ha): 40 | Plant response rating, Dallisgrass ([6]; Postemergence, 31 g ai/ha): 60 | Plant response rating, Dallisgrass ([6]; Postemergence, 62 g ai/ha): 70 | Plant response rating, Goosegrass ([7]; 8 g ai/ha, Preemergence): 20 | Plant response rating, Goosegrass ([7]; 16 g ai/ha, Preemergence): 35 | Plant response rating, Goosegrass ([7]; 31 g ai/ha, Preemergence): 100 | Plant response rating, Goosegrass ([7]; 62 g ai/ha, Preemergence): 100 | Plant response rating, Goosegrass ([7]; Postemergence, 8 g ai/ha): 35 | Plant response rating, Goosegrass ([7]; Postemergence, 16 g ai/ha): 50 | Plant response rating, Goosegrass ([7]; Postemergence, 31 g ai/ha): 70 | Plant response rating, Goosegrass ([7]; Postemergence, 62 g ai/ha): 75 | Plant response rating, Foxtail, Green ([8]; 8 g ai/ha, Preemergence): 0 | Plant response rating, Foxtail, Green ([8]; 16 g ai/ha, Preemergence): 5 | Plant response rating, Foxtail, Green ([8]; 31 g ai/ha, Preemergence): 60 | Plant response rating, Foxtail, Green ([8]; 62 g ai/ha, Preemergence): 90 | Plant response rating, Foxtail, Green ([8]; Postemergence, 8 g ai/ha): 50 | Plant response rating, Foxtail, Green ([8]; Postemergence, 16 g ai/ha): 60 | Plant response rating, Foxtail, Green ([8]; Postemergence, 31 g ai/ha): 70 | Plant response rating, Foxtail, Green ([8]; Postemergence, 62 g ai/ha): 75 | Plant response rating, Guineagrass ([9]; 16 g ai/ha, Preemergence): 90 | Plant response rating, Guineagrass ([9]; 31 g ai/ha, Preemergence): 100 | Plant response rating, Guineagrass ([9]; 62 g ai/ha, Preemergence): 100 | Plant response rating, Guineagrass ([9]; Postemergence, 8 g ai/ha): 75 | Plant response rating, Guineagrass ([9]; Postemergence, 16 g ai/ha): 80 | Plant response rating, Guineagrass ([9]; Postemergence, 31 g ai/ha): 85 | Plant response rating, Guineagrass ([9]; Postemergence, 62 g ai/ha): 90 | Plant response rating, Itchgrass ([10]; 16 g ai/ha, Preemergence): 0 | Plant response rating, Itchgrass ([10]; 31 g ai/ha, Preemergence): 75 | Plant response rating, Itchgrass ([10]; 62 g ai/ha, Preemergence): 75 | Plant response rating, Itchgrass ([10]; Postemergence, 8 g ai/ha): 50 | Plant response rating, Itchgrass ([10]; Postemergence, 16 g ai/ha): 60 | Plant response rating, Itchgrass ([10]; Postemergence, 31 g ai/ha): 65 | Plant response rating, Itchgrass ([10]; Postemergence, 62 g ai/ha): 70 | Plant response rating, Johnsongrass ([11]; 16 g ai/ha, Preemergence): 25 | Plant response rating, Johnsongrass ([11]; 31 g ai/ha, Preemergence): 80 | Plant response rating, Johnsongrass ([11]; 62 g ai/ha, Preemergence): 98 | Plant response rating, Johnsongrass ([11]; Postemergence, 8 g ai/ha): 40 | Plant response rating, Johnsongrass ([11]; Postemergence, 16 g ai/ha): 60 | Plant response rating, Johnsongrass ([11]; Postemergence, 31 g ai/ha): 75 | Plant response rating, Johnsongrass ([11]; Postemergence, 62 g ai/ha): 100 | Plant response rating, Crabgrass, Large ([12]; 8 g ai/ha, Preemergence): 0 | Plant response rating, Crabgrass, Large ([12]; 16 g ai/ha, Preemergence): 40 | Plant response rating, Crabgrass, Large ([12]; 31 g ai/ha, Preemergence): 75 | Plant response rating, Crabgrass, Large ([12]; 62 g ai/ha, Preemergence): 95 | Plant response rating, Crabgrass, Large ([12]; Postemergence, 8 g ai/ha): 60 | Plant response rating, Crabgrass, Large ([12]; Postemergence, 16 g ai/ha): 65 | Plant response rating, Crabgrass, Large ([12]; Postemergence, 31 g ai/ha): 75 | Plant response rating, Crabgrass, Large ([12]; Postemergence, 62 g ai/ha): 80 | Plant response rating, Crabgrass, Naked ([13]; 8 g ai/ha, Preemergence): 0 | Plant response rating, Crabgrass, Naked ([13]; 16 g ai/ha, Preemergence): 50 | Plant response rating, Crabgrass, Naked ([13]; 31 g ai/ha, Preemergence): 98 | Plant response rating, Crabgrass, Naked ([13]; 62 g ai/ha, Preemergence): 100 | Plant response rating, Crabgrass, Naked ([13]; Postemergence, 8 g ai/ha): 30 | Plant response rating, Crabgrass, Naked ([13]; Postemergence, 16 g ai/ha): 65 | Plant response rating, Crabgrass, Naked ([13]; Postemergence, 31 g ai/ha): 75 | Plant response rating, Crabgrass, Naked ([13]; Postemergence, 62 g ai/ha): 90 | Plant response rating, Nutsedge, Purple ([14]; 16 g ai/ha, Preemergence): 0 | Plant response rating, Nutsedge, Purple ([14]; 31 g ai/ha, Preemergence): 0 | Plant response rating, Nutsedge, Purple ([14]; 62 g ai/ha, Preemergence): 0 | Plant response rating, Nutsedge, Purple ([14]; Postemergence, 8 g ai/ha): 0 | Plant response rating, Nutsedge, Purple ([14]; Postemergence, 16 g ai/ha): 0 | Plant response rating, Nutsedge, Purple ([14]; Postemergence, 31 g ai/ha): 0 | Plant response rating, Nutsedge, Purple ([14]; Postemergence, 62 g ai/ha): 0 | Plant response rating, Surinam Grass ([15]; 16 g ai/ha, Preemergence): 20 | Plant response rating, Surinam Grass ([15]; 31 g ai/ha, Preemergence): 95 | Plant response rating, Surinam Grass ([15]; 62 g ai/ha, Preemergence): 95 | Plant response rating, Surinam Grass ([15]; Postemergence, 8 g ai/ha): 20 | Plant response rating, Surinam Grass ([15]; Postemergence, 16 g ai/ha): 50 | Plant response rating, Surinam Grass ([15]; Postemergence, 31 g ai/ha): 50 | Plant response rating, Surinam Grass ([15]; Postemergence, 62 g ai/ha): 75
